The record followed here is publication PMC5879128, “Combined in Vitro and in Silico Studies for the Anticholinesterase Activity and Pharmacokinetics of Coumarinyl Thiazoles and Oxadiazoles” (Frontiers in Chemistry, 2018).

For one experiment, the target named is T1, BuChE (Equus caballus, UniProt P81908).
T1 construct: electric eel, and horse serum were used as source of AChE and BuChE, respectively; from tissue; host or cells: horse serum
Nature of the experiment: biochemical. Type of experiment: biochemical. The note with it: for Selectivity for BuChE: ratio of IC50 values, AChE over BuChE. How it is done: (§1) The target compounds, coumarinyl thiazoles 6(a–o) and coumarinyl oxadiazoles 11(a–h), were screened for their inhibitory activity against AChE and BuChE by Ellman's method.
(§2) For the determination of cholinesterase inhibition, electric eel, and horse serum were used as source of AChE and BuChE, respectively. […] The compounds with 1 Mm concentration were prepared in DMSO. Assay was carried out in 96 well-plate in triplicates. The reaction mixture comprised of 20 μL of buffer (tris HCl 50 mM, 0.02 M MgCl2.6H2O, 0.1 mM NaCl) at pH 8, 10 μL of the test compound, 10 μL enzyme acetylcholine or butyrylcholinesterase of 0.03 U/mL (500 U of AChE and 700 U/mg of BuChE). The contents were incubated for 10 min at 25°C followed by the addition of 1 mM of 10 μL of substrate […] for AChE and butyrylthiocholine iodide for BuChE and incubated again at 25°C for 15 min. A 50 μL of 3 mM DTNB as a coloring agent was added and incubated at 25°C for further 10 min. […] The enzyme dilutions were made by using buffer of pH 8 (tris base 50 mM and having 0.1% BSA).

The next experiment has as its target T2, AChE (Electrophorus electricus, UniProt O42275).
T2 construct: electric eel, and horse serum were used as source of AChE and BuChE, respectively; from tissue; host or cells: electric eel
The experiment is described as follows: biochemical. Type of experiment: biochemical. The note with it: for IC50: electric eel AChE, Ellman's method, SEM of three experiments; for Selectivity for AChE: ratio of IC50 values, BuChE over AChE; for fold stronger AChE inhibition than the standard neostigmine: relative to neostigmine. How it is done:
as §1, §2

The mark [1] stands for this setting: horse serum BuChE, Ellman's method, SEM of three experiments, read-out: BuChE IC50 (μM) ± SEM.

The structures appear in SMILES notation. Where two headings read alike, the source gives them in different places.

T1 sequence (P81908 whole entry): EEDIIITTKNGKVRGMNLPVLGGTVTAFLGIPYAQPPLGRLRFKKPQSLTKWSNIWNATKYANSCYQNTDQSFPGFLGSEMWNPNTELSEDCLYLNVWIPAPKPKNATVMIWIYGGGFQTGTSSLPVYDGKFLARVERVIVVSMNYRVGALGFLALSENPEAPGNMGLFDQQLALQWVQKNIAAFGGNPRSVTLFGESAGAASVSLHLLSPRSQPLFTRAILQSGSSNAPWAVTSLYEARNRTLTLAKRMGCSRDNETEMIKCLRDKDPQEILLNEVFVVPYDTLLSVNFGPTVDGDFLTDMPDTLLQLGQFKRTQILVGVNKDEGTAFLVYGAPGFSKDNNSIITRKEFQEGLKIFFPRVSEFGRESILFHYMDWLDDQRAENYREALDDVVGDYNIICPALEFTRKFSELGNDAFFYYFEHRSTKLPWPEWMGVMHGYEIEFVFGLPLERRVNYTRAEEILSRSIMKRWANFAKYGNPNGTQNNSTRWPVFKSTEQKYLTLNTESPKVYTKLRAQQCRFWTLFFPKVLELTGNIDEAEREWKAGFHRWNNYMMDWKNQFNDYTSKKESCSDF
T2 sequence (O42275 24-633): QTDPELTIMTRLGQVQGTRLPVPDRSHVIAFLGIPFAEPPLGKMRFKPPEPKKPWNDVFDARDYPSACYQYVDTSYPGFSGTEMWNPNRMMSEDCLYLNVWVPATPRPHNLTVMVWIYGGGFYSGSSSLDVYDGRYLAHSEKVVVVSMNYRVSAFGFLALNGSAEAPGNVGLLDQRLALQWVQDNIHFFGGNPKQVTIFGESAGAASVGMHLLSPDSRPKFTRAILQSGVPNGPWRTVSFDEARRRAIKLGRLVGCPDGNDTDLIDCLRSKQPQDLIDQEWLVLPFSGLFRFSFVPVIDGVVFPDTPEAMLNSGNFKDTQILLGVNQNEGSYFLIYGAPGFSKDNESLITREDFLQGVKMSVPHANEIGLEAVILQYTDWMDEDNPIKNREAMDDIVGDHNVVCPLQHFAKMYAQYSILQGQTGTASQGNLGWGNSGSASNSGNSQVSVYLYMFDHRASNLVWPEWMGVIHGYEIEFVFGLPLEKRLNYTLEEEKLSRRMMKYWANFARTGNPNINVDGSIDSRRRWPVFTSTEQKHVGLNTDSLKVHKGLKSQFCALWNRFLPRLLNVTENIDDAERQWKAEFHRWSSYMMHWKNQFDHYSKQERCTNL

In the case of `C/C(=N\Nc1nc(-c2cc3ccccc3oc2=O)cs1)c1ccccc1` [Compound 6a], the figures for the IC50 on BuChE (setting [1]) and against AChE were 32.7 ± 2.08 µM and 16.9 ± 0.32 µM, respectively. Further, the “Selectivity for BuChE” value at BuChE is 0.51. Further, on AChE, the “Selectivity for AChE” value was determined as 1.93.

In the case of `CC(=NNc1nc(-c2cc3ccccc3oc2=O)cs1)c1cccc(N)c1` [Compound 6b], the half-maximal inhibitory concentration (IC50) at BuChE (setting [1]) amounted to 31.22 ± 0.17 µM. At BuChE, the “Selectivity for BuChE” value is 0.027. Also, on AChE, 0.87 ± 0.09 µM corresponded to half-maximal inhibition (IC50), the “Selectivity for AChE” value was 35.8 and the “fold stronger AChE inhibition than the standard neostigmine” value was ~ 32 fold.

As to `C/C(=N\Nc1nc(-c2cc3ccccc3oc2=O)cs1)c1ccccc1Br` [Compound 6c], the IC50 on BuChE (setting [1]) was 19.3 ± 1.42 µM; at AChE, 21.2 ± 0.23 µM. Also, the “Selectivity for BuChE” value at BuChE came out at 1.09. Further, the “Selectivity for AChE” value at AChE stood at 0.91.

As for `C/C(=N\Nc1nc(-c2cc3ccccc3oc2=O)cs1)c1cccc(Br)c1` [Compound 6d], at BuChE, the “BuChE inhibition, in words” value is recorded as “moderate inhibitors” and the “Selectivity for BuChE” value stood at 1.98. Moreover, the IC50 on BuChE (setting [1]) came to 15.2 ± 0.53 µM. For the same compound, at AChE, half-maximal inhibition (IC50) required 30.1 ± 1.73 µM and the “Selectivity for AChE” value worked out at 0.50.

For the compound `C/C(=N\Nc1nc(-c2cc3ccccc3oc2=O)cs1)c1ccc(Br)cc1` [Compound 6e], the values for the IC50 at BuChE (setting [1]) and against AChE were 49.12 ± 0.12 µM and 33.42 ± 0.18 µM, respectively. The “Selectivity for BuChE” value on BuChE is given as 0.68. For the same compound, on AChE, the “Selectivity for AChE” value is 1.47.

Turning to `C/C(=N\Nc1nc(-c2cc3ccccc3oc2=O)cs1)c1ccccc1F` [Compound 6f], the results for the half-maximal inhibitory concentration (IC50) on BuChE (setting [1]) and at AChE were 32.1 ± 1.21 µM and 23.1 ± 0.32 µM, respectively. Moreover, the “Selectivity for BuChE” value on BuChE turned out to be 0.71. Moreover, the “Selectivity for AChE” value at AChE turned out to be 1.39.

Regarding `C/C(=N\Nc1nc(-c2cc3ccccc3oc2=O)cs1)c1ccc(F)cc1` [Compound 6g], the IC50 at BuChE (setting [1]) is 28.01 ± 0.21 µM. The “Selectivity for BuChE” value at BuChE worked out at 1.29. Further, at AChE, the concentration for half-maximal inhibition (IC50) is 36.34 ± 0.18 µM and the “Selectivity for AChE” value is 0.77.

Consider `COc1ccc(C(C)=NNc2nc(-c3cc4ccccc4oc3=O)cs2)cc1` [Compound 6h], for which, on BuChE, the “BuChE inhibition, in words” value is given as “moderate inhibitors” and the “Selectivity for BuChE” value was determined as 0.055. Besides, the half-inhibitory concentration (IC50) on BuChE (setting [1]) came out at 19.32 ± 0.11 µM. Besides, on AChE, half-maximal inhibition (IC50) was put at 1.08 ± 0.84 µM, the “Selectivity for AChE” value was determined as 17.8 and the “fold stronger AChE inhibition than the standard neostigmine” value was found to be 26 fold.

Regarding `COc1ccc(/C(C)=N/Nc2nc(-c3cc4ccccc4oc3=O)cs2)cc1F` [Compound 6i], the half-maximal inhibitory concentration (IC50) on BuChE (setting [1]) turned out to be 22.1 ± 1.08 µM; against AChE it was 2.34 ± 1.43 µM. The “Selectivity for BuChE” value at BuChE was found to be 0.105. For the same compound, the “Selectivity for AChE” value on AChE was 9.44.

`COc1ccc(/C(C)=N/Nc2nc(-c3cc4ccccc4oc3=O)cs2)c(O)c1` [Compound 6j]: the half-maximal inhibitory concentration (IC50) at BuChE (setting [1]) turned out to be 11 ± 3.37 µM. In addition, on BuChE, the “Selectivity for BuChE” value is 0.81. Also, at AChE, the half-maximal inhibitory concentration (IC50) was determined as 9.05 ± 0.23 µM and the “Selectivity for AChE” value is on record as 1.22.

In the case of `COc1cc(C(C)=NNc2nc(-c3cc4ccccc4oc3=O)cs2)ccc1O` [Compound 6k], the IC50 on BuChE (setting [1]) turned out to be 19.1 ± 1.32 µM. Also, the “Selectivity for BuChE” value at BuChE came out at 0.303. Besides, at AChE, the 50% inhibitory concentration (IC50) was found to be 5.86 ± 0.15 µM and the “Selectivity for AChE” value is recorded as 3.29.

With `COc1ccc(/C(C)=N/Nc2nc(-c3cc4ccccc4oc3=O)cs2)cc1I` [Compound 6l], the half-inhibitory concentration (IC50) at BuChE (setting [1]) worked out at 32.1 ± 1.08 µM. Further, the “Selectivity for BuChE” value at BuChE is on record as 0.42. On AChE, the concentration for half-maximal inhibition (IC50) came out at 13.8 ± 1.58 µM and the “Selectivity for AChE” value is reported as 2.32.

Take `C/C(=N\Nc1nc(-c2cc3ccccc3oc2=O)cs1)c1ccc(Cl)cc1N` [Compound 6m]: the IC50 at BuChE (setting [1]) is 37.2 ± 0.55 µM. Further, on BuChE, the “Selectivity for BuChE” value stood at 0.61. On AChE, the IC50 came to 22.74 ± 0.16 µM and the “Selectivity for AChE” value is on record as 1.63.

For `O=c1oc2ccccc2cc1-c1csc(NN=C(c2ccccc2)c2ccccc2)n1` [Compound 6n], the concentration for half-maximal inhibition (IC50) at BuChE (setting [1]) was found to be 21.6 ± 3.09 µM; on AChE it was 11.2 ± 0.17 µM. The “Selectivity for BuChE” value at BuChE is listed as 0.51. In addition, the “Selectivity for AChE” value on AChE was 1.94.

Turning to `C/C(=N\Nc1nc(-c2cc3ccccc3oc2=O)cs1)c1cc2ccccc2oc1=O` [Compound 6o], the IC50 on BuChE (setting [1]) came to 23.2 ± 0.29 µM. Besides, on BuChE, the “Selectivity for BuChE” value is given as 0.43. Further, on AChE, the IC50 was found to be 10.1 ± 1.12 µM and the “Selectivity for AChE” value is on record as 2.28.

As to `CNCn1nc(-c2cc3ccccc3oc2=O)oc1=S` [Compound 11a], on BuChE (setting [1]), the IC50 was 0.341 ± 0.06 µM. Moreover, the “Selectivity for BuChE” value at BuChE stood at 17.8. Besides, on AChE, 6.07 ± 0.23 µM corresponded to half-maximal inhibition (IC50) and the “Selectivity for AChE” value was 0.056.

Take `CCCCNCn1nc(-c2cc3ccccc3oc2=O)oc1=S` [Compound 11b]: the 50% inhibitory concentration (IC50) on BuChE (setting [1]) was determined as 0.77 ± 0.08 µM. Moreover, at BuChE, the “Selectivity for BuChE” value was found to be 12.2. On AChE, the IC50 stood at 9.41 ± 0.55 µM and the “Selectivity for AChE” value came out at 0.081.

For `Cc1ccc(NCn2nc(-c3cc4ccccc4oc3=O)oc2=S)cc1` [Compound 11c], at BuChE (setting [1]), the IC50 turned out to be 8.01 ± 3.58 µM. Also, the “Selectivity for BuChE” value at BuChE is 2.97. In addition, at AChE, the IC50 stood at 23.8 ± 0.94 µM and the “Selectivity for AChE” value turned out to be 0.33.

As for `O=c1oc2ccccc2cc1-c1nn(CNc2ccccc2Cl)c(=S)o1` [Compound 11d], the values for the half-inhibitory concentration (IC50) on BuChE (setting [1]) and against AChE were 3.48 ± 1.58 µM and 16.6 ± 2.72 µM, respectively. The “Selectivity for BuChE” value on BuChE is given as 4.77. Further, the “Selectivity for AChE” value at AChE worked out at 0.20.

As for `O=c1oc2ccccc2cc1-c1nn(CNc2cccc(Cl)c2)c(=S)o1` [Compound 11e], at BuChE (setting [1]), the half-maximal inhibitory concentration (IC50) turned out to be 0.15 ± 0.09 µM. Moreover, the “Selectivity for BuChE” value on BuChE is on record as 82.6. Also, the “fold more potent against BuChE than neostigmine” value at BuChE (relative to neostigmine) is “about 107 fold”. In addition, on AChE, the IC50 was found to be 12.4 ± 0.08 µM and the “Selectivity for AChE” value is listed as 0.012.

Consider `O=c1oc2ccccc2cc1-c1nn(CNc2ccc(Cl)cc2)c(=S)o1` [Compound 11f], for which the IC50 was found to be 12.1 ± 1.08 µM on BuChE (setting [1]) and 18.6 ± 0.32 µM on AChE. Moreover, on BuChE, the “Selectivity for BuChE” value is given as 1.53. Besides, at AChE, the “Selectivity for AChE” value is 0.65.

`O=c1oc2ccccc2cc1-c1nn(CN(c2ccccc2)c2ccccc2)c(=S)o1` [Compound 11g]: at BuChE (setting [1]), the IC50 came to 4.54 ± 0.54 µM. The “Selectivity for BuChE” value on BuChE was determined as 2.10. On AChE, the “AChE inhibition, in words” value was “moderate inhibitors”; 9.57 ± 1.42 µM corresponded to half-maximal inhibition (IC50); the “Selectivity for AChE” value worked out at 0.47.

For the compound `O=c1oc2ccccc2cc1-c1nn(CN2CCOCC2)c(=S)o1` [Compound 11h], on BuChE (setting [1]), the IC50 stood at 13.5 ± 0.41 µM. Besides, on BuChE, the “Selectivity for BuChE” value was determined as 0.91. On AChE, the “AChE inhibition, in words” value was “moderate inhibitors”; half-maximal inhibition (IC50) was put at 12.2 ± 1.67 µM; the “Selectivity for AChE” value came to 1.09.

Regarding `CN(C)C(=O)Oc1cccc([N+](C)(C)C)c1` [Neostigmine, reference compound], on BuChE, half-maximal inhibition (IC50) was put at 16.1 ± 1.13 µM and the “Selectivity for BuChE” value was 1.75. In addition, at AChE, the IC50 amounted to 28.2 ± 2.01 µM and the “Selectivity for AChE” value is given as 0.57.
